Experiment [1] addresses memapsin 2 (Homo sapiens, UniProt P56817). Nature of the experiment: Inhibition of memapsin 2 beta-secretase activity toward fluorogenic substrate FS-2. As to conditions: pH 4, 37° C., 20 minutes pre-incubation, read-out: M2 Ki. Type of experiment: biochemical. Here is the method: Potency of compounds were determined by measurement of their inhibition of memapsin 2 activity toward a fluorescent substrate. […] Briefly, assays were performed at pH 4, 37° C., by pre-incubation of memapsin 2 enzyme with compound for 20 minutes. Activity measure was initiated by addition of a fluorogenic substrate FS-2 (Bachem Americas, Torrance, Calif.). Fluorescent signal increase over time was measured as a rate of hydrolysis of the peptide substrate.

For experiment [2], the target named is Cathepsin D (Homo sapiens, UniProt P07339). Nature of the experiment: Inhibition of cathepsin D activity (substrate peptide hydrolysis, MALDI-TOF). Type of experiment: biochemical. As to conditions: pH 4.1, 37 degrees C., read-out: Cath D Ki.
Chain of Cathepsin D (P07339 65-412, species assumed): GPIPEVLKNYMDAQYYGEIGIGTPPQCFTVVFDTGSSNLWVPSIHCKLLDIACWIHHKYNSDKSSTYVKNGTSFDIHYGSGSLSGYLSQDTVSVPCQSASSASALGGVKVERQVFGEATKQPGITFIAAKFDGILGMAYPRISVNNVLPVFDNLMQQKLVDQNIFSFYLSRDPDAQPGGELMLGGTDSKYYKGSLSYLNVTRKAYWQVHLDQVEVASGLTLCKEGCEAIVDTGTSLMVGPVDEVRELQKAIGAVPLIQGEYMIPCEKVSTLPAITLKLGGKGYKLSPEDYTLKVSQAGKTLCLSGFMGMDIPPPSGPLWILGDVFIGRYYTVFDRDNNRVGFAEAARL
In experiment [3] the target is T1, memapsin 1 (Homo sapiens, UniProt Q9Y5Z0).
T1 sequence (Q9Y5Z0 63-518): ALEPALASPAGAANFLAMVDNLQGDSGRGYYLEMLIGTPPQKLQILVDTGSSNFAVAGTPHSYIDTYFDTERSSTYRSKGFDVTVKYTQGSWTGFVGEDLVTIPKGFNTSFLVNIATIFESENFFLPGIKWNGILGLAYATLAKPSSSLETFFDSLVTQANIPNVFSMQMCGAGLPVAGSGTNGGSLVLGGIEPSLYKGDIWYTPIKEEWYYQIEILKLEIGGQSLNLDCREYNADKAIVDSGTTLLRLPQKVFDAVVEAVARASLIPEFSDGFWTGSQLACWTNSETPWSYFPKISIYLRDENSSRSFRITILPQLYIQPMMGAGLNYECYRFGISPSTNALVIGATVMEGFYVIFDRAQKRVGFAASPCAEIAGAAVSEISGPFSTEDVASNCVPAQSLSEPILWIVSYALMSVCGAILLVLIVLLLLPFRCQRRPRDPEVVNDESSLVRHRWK
Nature of the experiment: Inhibition of memapsin 1 beta-secretase activity (substrate peptide hydrolysis, MALDI-TOF). Type of experiment: biochemical. As to conditions: pH 4.1, 37 degrees C., read-out: M1 Ki.

Experiment [4] relates to Aβ production. The experiment can be described thus: Cellular Aβ IC50 determination (Aβ40 sandwich ELISA). Type of experiment: cell-based. As to conditions: Cricetulus griseus, Chinese hamster ovary cells over-expressing human APP695 with London and Swedish mutations, 24 h. Here is the method: The potency of compounds against memapsin 2 activity was determined in a cellular assay of Aβ production. […] Chinese hamster ovary cells that over-express human APP695 with the London and Swedish mutations were seeded in multi-well plates at 10% confluency. Compounds were dissolved in DMSO to concentrations near 1 mM, and diluted into culture media to a final concentration near 4 μM (final 0.4% DMSO). Compounds were diluted serially and applied to cells in multi-well plates 48 h after seeding. Incubation was continued in 5% CO2 at 37 degrees C. for 24 h. Aliquots were removed and assayed for Aβ40 content using a sandwich ELISA (BioSource International). Amount of Aβ40 over the range of concentration of compounds, relative to control incubations, were fit to a 4-parameter IC50 model.

The structures appear in SMILES notation.

This passage reports Ki and IC50 results from patent publication US20080207527A1, “Bicyclic Compounds Which Inhibit Beta-Secretase Activity and Methods of Use Thereof” (CoMentis, Inc., priority 2004, published 2008).

Chain of memapsin 2 (P56817 46-501): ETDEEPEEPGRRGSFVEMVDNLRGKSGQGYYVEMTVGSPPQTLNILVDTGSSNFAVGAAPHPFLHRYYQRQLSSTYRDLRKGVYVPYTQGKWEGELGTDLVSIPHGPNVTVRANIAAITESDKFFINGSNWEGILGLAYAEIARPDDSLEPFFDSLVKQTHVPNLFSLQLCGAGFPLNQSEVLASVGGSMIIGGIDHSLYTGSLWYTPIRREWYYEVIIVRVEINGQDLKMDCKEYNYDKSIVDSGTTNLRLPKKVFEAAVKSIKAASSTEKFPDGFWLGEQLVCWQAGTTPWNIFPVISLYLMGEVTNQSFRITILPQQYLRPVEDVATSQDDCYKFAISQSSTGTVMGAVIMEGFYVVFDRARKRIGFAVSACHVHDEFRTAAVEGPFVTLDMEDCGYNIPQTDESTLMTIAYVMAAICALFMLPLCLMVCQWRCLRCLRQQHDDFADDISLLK

One may read the Ki as a dissociation constant, usually derived from enzyme kinetics or from competition with a known ligand. The term IC50 denotes the concentration at which inhibition is half-maximal. `CC(C)CNC(=O)C(NC(=O)C(C)CC(O)C(CC(C)C)NC(=O)c1cncc(C(=O)N(C)Cc2ccccn2)c1)C(C)C` (stereo not drawn) [N3-(5-hydroxy-8-(1-(isobutylamino)-3-methyl-1-oxobutan-2-ylamino)-2,7-dimethyl-8-oxooctan-4-yl)-N5-methyl-N5-(pyridin-2-ylmethyl)pyridine-3,5-dicarboxamide]: the inhibition constant Ki in experiment [1], in experiment [2] and in experiment [3] was below 405 nM in each case. The IC50 in experiment [4] is above 20000 nM.
In the case of `CCCN(CCC)C(=O)c1cccc(C(=O)NC(Cc2cc(F)cc(F)c2)C(O)CC(C)C(=O)NCC(C)C)c1` (stereo not drawn) [N1-(1-(3,5-difluorophenyl)-3-hydroxy-6-(isobutylamino)-5-methyl-6-oxohexan-2-yl)-N3,N3-dipropylisophthalamide], the Ki in experiment [1], in experiment [2] and in experiment [3] was below 405 nM throughout. In experiment [4], this compound returned an IC50 below 5000 nM.
As for `CC(C)CNC(=O)C(NC(=O)C(C)CC(O)C(CC(C)C)NC(=O)c1cccc(C(=O)N(C)Cc2ccco2)c1)C(C)C` (stereo not drawn) [N1-(furan-2-ylmethyl)-N3-(5-hydroxy-8-(1-(isobutylamino)-3-methyl-1-oxobutan-2-ylamino)-2,7-dimethyl-8-oxooctan-4-yl)-N1-methylisophthalamide], the Ki in experiment [1] was below 405 nM; in experiment [2], below 405 nM; in experiment [3] it was 405 to 2000 nM. Besides, in experiment [4], the IC50 is above 20000 nM.
As to `CC(C)CC(NC(=O)c1cc(C(=O)NC(C)c2ccccc2)cc(N(C)S(C)(=O)=O)c1)C(O)CC(C)C(=O)NC(C(=O)NCc1ccccn1)C(C)C` (stereo not drawn) [N1-(5-hydroxy-2,7-dimethyl-8-(3-methyl-1-oxo-1-(pyridin-2-ylmethylamino)butan-2-ylamino)-8-oxooctan-4-yl)-5-(N-methylmethylsulfonamido)-N3-(1-phenylethyl)isophthalamide], the Ki in experiment [1], in experiment [2] and in experiment [3] was below 405 nM in each case. The same compound came in with an IC50 in experiment [4] below 5000 nM.
Regarding `CC(C)CNC(=O)C(NC(=O)C(C)CC(O)C(CC(C)C)NC(=O)c1cc(C(=O)N(C)Cc2ccccn2)cc(N(C)S(C)(=O)=O)c1)C(C)C` (stereo not drawn) [N1-(5-hydroxy-8-(1-(isobutylamino)-3-methyl-1-oxobutan-2-ylamino)-2,7-dimethyl-8-oxooctan-4-yl)-N3-methyl-5-(N-methylmethylsulfonamido)-N3-(pyridin-2-ylmethyl)isophthalamide], the Ki in experiment [1] was below 405 nM; in experiment [2], below 405 nM; in experiment [3], 405 to 2000 nM. For the same compound, the IC50 in experiment [4] was above 20000 nM.
For the compound `Cc1csc(CN(C)C(=O)c2cccc(C(=O)NC(CC(C)C)C(O)CC(C)C(=O)NC(C(=O)NCC(C)C)C(C)C)c2)n1` (stereo not drawn) [N1-(5-hydroxy-8-(1-(isobutylamino)-3-methyl-1-oxobutan-2-ylamino)-2,7-dimethyl-8-oxooctan-4-yl)-N3-methyl-N3-((4-methylthiazol-2-yl)methyl)isophthalamide], the inhibition constant (Ki) in experiment [1] is below 405 nM; in experiment [2], below 405 nM; in experiment [3] it was 405 to 2000 nM. In experiment [4], this compound returned an IC50 below 5000 nM.
Regarding `CC(C)CNC(=O)C(NC(=O)C(C)CC(O)C(CC(C)C)NC(=O)c1cc(C(=O)N(C)C(C)c2ccccc2)cc(N(C)S(C)(=O)=O)c1)C(C)C` (stereo not drawn) [N1-(5-hydroxy-8-(1-(isobutylamino)-3-methyl-1-oxobutan-2-ylamino)-2,7-dimethyl-8-oxooctan-4-yl)-N3-methyl-5-(N-methylmethylsulfonamido)-N3-(1-phenylethyl)isophthalamide], the Ki in experiment [1] was 405 to 2000 nM; in experiment [2], below 405 nM; in experiment [3], below 405 nM. In addition, the half-inhibitory concentration (IC50) in experiment [4] was above 20000 nM.
For `COc1ccc(C[C@H](NC(=O)c2cccc(C(=O)NCc3nc(C)cs3)c2)[C@@H](O)C[C@@H](C)C(=O)N[C@H](C(=O)NCC(C)C)C(C)C)cc1` [N1-(3-hydroxy-6-(1-(isobutylamino)-3-methyl-1-oxobutan-2-ylamino)-1-(4-methoxyphenyl)-5-methyl-6-oxohexan-2-yl)-N3-((4-methylthiazol-2-yl)methyl)isophthalamide], the figures for the Ki in experiment [1], in experiment [2] and in experiment [3] were 2000 to 5000 nM, below 405 nM and 405 to 2000 nM, respectively.
Consider `CC(=O)Nc1cc(C(=O)NC(C)c2ccccc2)cc(C(=O)NC(CC(C)C)C(O)CC(C)C(=O)NC(C(=O)NCC(C)C)C(C)C)c1` (stereo not drawn) [5-acetamido-N1-(5-hydroxy-8-(1-(isobutylamino)-3-methyl-1-oxobutan-2-ylamino)-2,7-dimethyl-8-oxooctan-4-yl)-N3-(1-phenylethyl)isophthalamide], for which the Ki in experiment [1], in experiment [2] and in experiment [3] was below 405 nM in each case. This compound also showed an IC50 in experiment [4] of 5000 to 10000 nM.
Consider `CCN(Cc1ccncc1)C(=O)c1cc(C)cc(C(=O)NC(CC(C)C)C(O)CC(C)C(=O)NC(C(=O)NCC(C)C)C(C)C)c1` (stereo not drawn) [N1-ethyl-N3-(5-hydroxy-8-(1-(isobutylamino)-3-methyl-1-oxobutan-2-ylamino)-2,7-dimethyl-8-oxooctan-4-yl)-5-methyl-N1-(pyridin-4-ylmethyl)isophthalamide], for which the Ki in experiment [1] is 405 to 2000 nM; in experiment [2] it was below 405 nM; in experiment [3] it was below 405 nM. The same compound showed an IC50 in experiment [4] above 20000 nM.
Consider `COc1cccc(CNC(=O)C(C)CC(O)C(CC(C)C)NC(=O)c2cc(C(=O)NC(C)c3ccccc3)cc(N(C)S(C)(=O)=O)c2)c1` (stereo not drawn) [N1-(5-hydroxy-8-(3-methoxybenzylamino)-2,7-dimethyl-8-oxooctan-4-yl)-5-(N-methylmethylsulfonamido)-N3-(1-phenylethyl)isophthalamide], for which the Ki in experiment [1], in experiment [2] and in experiment [3] was above 5000 nM throughout. The compound further came in with a concentration for half-maximal inhibition (IC50) in experiment [4] of 10000 to 20000 nM.
In the case of `CC(C)CNC(=O)C(NC(=O)C(C)CC(O)C(CC(C)C)NC(=O)c1cc(F)cc(C(=O)NC(C)c2ccccc2)c1)C(C)C` (stereo not drawn) [5-fluoro-N1-(5-hydroxy-8-(1-(isobutylamino)-3-methyl-1-oxobutan-2-ylamino)-2,7-dimethyl-8-oxooctan-4-yl)-N3-(1-phenylethyl)isophthalamide], the Ki was 405 to 2000 nM in experiment [1], below 405 nM in experiment [2] and below 405 nM in experiment [3]. In experiment [4], this compound displayed an IC50 of 10000 to 20000 nM.
In the case of `CCCN(CCC)C(=O)c1cccc(C(=O)NC(Cc2ccc(OC)cc2)C(O)CC(C)C(=O)NC(C(=O)NCC(C)C)C(C)C)c1` (stereo not drawn) [N1-(3-hydroxy-6-(1-(isobutylamino)-3-methyl-1-oxobutan-2-ylamino)-1-(4-methoxyphenyl)-5-methyl-6-oxohexan-2-yl)-N3,N3-dipropylisophthalamide], the Ki in experiment [1], in experiment [2] and in experiment [3] was below 405 nM throughout. Also, the IC50 in experiment [4] was 5000 to 10000 nM.
For `CC(C)CNC(=O)C(NC(=O)C(C)CC(O)C(CC(C)C)NC(=O)c1cccc(C(=O)N(C)Cc2nccn2C)c1)C(C)C` (stereo not drawn) [N1-(5-hydroxy-8-(1-(isobutylamino)-3-methyl-1-oxobutan-2-ylamino)-2,7-dimethyl-8-oxooctan-4-yl)-N3-methyl-N3-((1-methyl-1H-imidazol-2-yl)methyl)isophthalamide], the inhibition constant (Ki) in experiment [1] is above 5000 nM; in experiment [2], 2000 to 5000 nM; in experiment [3], above 5000 nM.
For the compound `CCCN(CCC)C(=O)c1cccc(C(=O)N[C@@H](CC(C)C)[C@@H](O)C[C@@H](C)C(=O)NC(C(=O)NCC(C)C)C(C)C)c1` (stereo in doubt) [N1-(5-hydroxy-8-(1-(isobutylamino)-3-methyl-1-oxobutan-2-ylamino)-2,7-dimethyl-8-oxooctan-4-yl)-N3,N3-dipropylisophthalamide], the Ki in experiment [1], in experiment [2] and in experiment [3] was below 405 nM each time.
Take `Cc1nc(CN(C)C(=O)c2cccc(C(=O)NC(CC(C)C)C(O)CC(C)C(=O)NC(C(=O)NCC(C)C)C(C)C)c2)c(C)o1` (stereo not drawn) [N1-((2,5-dimethyloxazol-4-yl)methyl)-N3-(5-hydroxy-8-(1-(isobutylamino)-3-methyl-1-oxobutan-2-ylamino)-2,7-dimethyl-8-oxooctan-4-yl)-N1-methylisophthalamide]: the Ki in experiment [1] is below 405 nM; in experiment [2], below 405 nM; in experiment [3], 405 to 2000 nM.
